Patent US20210309666A1, “SMALL MOLECULE MDM2 PROTEIN DEGRADERS” (THE REGENTS OF THE UNIVERSITY OF MICHIGAN, priority 2018, published 2021)
Read-outs that look alike come from different tables or passages of the source.

What was measured:
[1] = test system: p53 protein; assay: Western blot analysis in 22RV1 cells, p53; assay type: cell-based, human; conditions: 2 hr treatment
Procedure: (§1) 22RV1 cells were treated with Cpd. No. 4 and Cpd. D (MDM2 degraders) or with Cpd. A (MDM2 inhibitor) for 2 hr. MDM2 and p53 proteins were probed using specific antibodies. GAPDH was used as the loading control. […] No. 4 and Cpd. D reduce MDM2 protein and increase p53 protein level, and that Cpd. A increases MDM2 and p53 protein levels in 22RV1 cells.

[2] = test system: RS4;11 cells; assay: Cell growth inhibition, 4-day proliferation assay (WST-8); assay type: cell-based; conditions: Homo sapiens, 96 h, 4 days
Procedure, shortened: (§2)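 Cells seeded at 2,000-3,000 per well in medium with 10% FBS and treated with serial compound dilutions for 4 days at 37 °C, 5% CO2. Viability by WST-8 (10% v/v, 1-2 h), absorbance at 450 nm, normalised to DMSO; IC50 by four-parameter variable-slope fit.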

[3] = test system: 22RV1 cells; assay: as above; assay type: cell-based; conditions: Homo sapiens, 96 h; 22RV1, prostate carcinoma, 4 days
Procedure, shortened: as §2

[4] = target: T1, MDM2 protein (Homo sapiens, UniProt Q00987); assay: Western blot analysis in 22RV1 cells, MDM2; assay type: cell-based; set-up: endogenous in cells; conditions: 2 hr treatment
T1 sequence (Q00987 whole entry): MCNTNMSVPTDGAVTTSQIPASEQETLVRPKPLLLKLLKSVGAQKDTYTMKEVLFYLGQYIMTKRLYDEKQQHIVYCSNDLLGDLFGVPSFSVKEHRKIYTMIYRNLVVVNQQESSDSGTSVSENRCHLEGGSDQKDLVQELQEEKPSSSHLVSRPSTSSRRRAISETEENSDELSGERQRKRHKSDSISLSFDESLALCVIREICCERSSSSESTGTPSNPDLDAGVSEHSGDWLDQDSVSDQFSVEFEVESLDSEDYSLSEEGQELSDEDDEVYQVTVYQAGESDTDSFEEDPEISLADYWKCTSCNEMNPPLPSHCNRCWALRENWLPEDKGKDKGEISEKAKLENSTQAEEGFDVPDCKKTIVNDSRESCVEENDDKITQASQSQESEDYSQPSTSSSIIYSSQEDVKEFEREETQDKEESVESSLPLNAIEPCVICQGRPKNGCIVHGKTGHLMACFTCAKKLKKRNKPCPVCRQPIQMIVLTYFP
Procedure: as §1

[5] = test system: p53 protein; assay: Western blot analysis in RS4;11 cells, p53; assay type: cell-based, human; conditions: 2 hr treatment
Procedure: (§3) RS4;11 cells were treated with Cpd. No. 4 and Cpd. No. 6 (MDM2 degraders) or with Cpd. B and Cpd. C (MDM2 inhibitors) for 2 hr. MDM2 and p53 proteins were probed using specific antibodies. GAPDH was used as the loading control. […] No. 4 and Cpd. No. 6 reduce MDM2 protein and increase p53 protein level, and that Cpd. B and Cpd. C increase MDM2 and p53 protein levels in RS4;11 cells. The structures of Cpd. B (see Compound Example No. 24 of U.S. Pat. No. 8,629,141) and Cpd.

[6] = target: T1, MDM2 protein; assay: Western blot analysis in RS4;11 cells, MDM2; assay type: cell-based; set-up: No. 4 and Cpd; No. 6 (MDM2 degraders); endogenous in cells; host or cells: RS4;11; conditions: 2 hr treatment
Procedure: as §3

[7] = Separate PK experiment, plasma concentrations after oral dose; assay type: in vivo; conditions: mouse, 50 mg/kg, mice
Description: In a separate PK experiment, the plasma concentrations of Cpd.

[8] = read-out: Plasma concentration, Average / Mean
[9] = read-out: Plasma concentration, Mouse 1
[10] = read-out: Plasma concentration, Mouse 2

## O=C(O)c1ccc(NC(=O)[C@@H]2NC3(CCCCC3)[C@@]3(C(=O)Nc4cc(Cl)ccc43)[C@H]2c2cccc(Cl)c2F)cc1 [Cpd. A, reference compound]
[1]
  p53 protein level: increases
[2]; RS4, 11, precursor cell lymphoblastic leukemia, read-out: IC50
  IC50: 138 nM
[3]
  IC50: 1330 nM
[4]
  MDM2 protein level: increases

## O=C(N[C@H]1CC[C@H](C(=O)O)CC1)[C@@H]1NC2(CCCCC2)[C@@]2(C(=O)Nc3cc(Cl)ccc32)[C@H]1c1cccc(Cl)c1F [Cpd. B, reference compound]
[5]
  p53 protein level: increase
[6]
  MDM2 protein level: increase

## O=C(NC12CCC(C(=O)O)(CC1)CC2)[C@@H]1NC2(CCCCC2)[C@@]2(C(=O)Nc3cc(Cl)ccc32)[C@H]1c1cccc(Cl)c1F [Cpd. C, reference compound]
[5]
  p53 protein level: increase
[6]
  MDM2 protein level: increase

## O=C1CCC(N2Cc3c(C#CC4CCN(C(=O)C56CCC(NC(=O)[C@@H]7NC8(CCCCC8)[C@@]8(C(=O)Nc9cc(Cl)ccc98)[C@H]7c7cccc(F)c7F)(CC5)CC6)CC4)cccc3C2=O)C(=O)N1 (stereo partly drawn) [Cpd. No. 14, (3′R,4′S,5′R)-6″-chloro-4′-(2,3-difluorophenyl)-N-(4-(4-((2-(2,6-dioxopiperidin-3-yl)-1-oxoisoindolin-4-yl)ethynyl)piperidine-1-carbonyl)bicyclo[2.2.2]octan-1-yl)-2″-oxodispiro[cyclohexane-1,2′-pyrrolidine-3′,3″-indoline]-5′-carboxamide]
[2]; RS4;11 cells, WST-8, read-out: RS4, 11 Cells IC50
  IC50: 11 nM
[7]; [8]
  concentration at 1 h: 3300 ng/mL
  concentration at 3 h: 7460 ng/mL
  concentration at 6 h: 8240 ng/mL
[7]; [9]
  concentration at 1 h: 4060 ng/mL
  concentration at 3 h: 6880 ng/mL
  concentration at 6 h: 7660 ng/mL
[7]; [10]
  concentration at 1 h: 2550 ng/mL
  concentration at 3 h: 8050 ng/mL
  concentration at 6 h: 8810 ng/mL
